Assay results as given in article PMC9049938 (2020).

Key:
Assay in all cases: BLI
[1] = system: N16 (DNA, aptamer) GAGGCAGCACTTCACACGATATTTGGGGATCAGCCAGGTCAGTGCCACTGCGTAATGACTGTAGTGATG; settings: 150 mM NaCl, 2 mM MgCl2; 50 mM Tris-HCl pH 7.5
[2] = system: N50 (DNA, aptamer) GAGGCAGCACTTCACACGATCGTCCCTGCCCCTGCCTCCTTTCTATGCTGCGTAATGACTGTAGTGATG; settings: 150 mM NaCl, 2 mM MgCl2; 50 mM Tris-HCl pH 7.5
[3] = system: N41 (DNA, aptamer) GAGGCAGCACTTCACACGATCCCCCCCACACTCTTCCAACCCCCTCTCTGCGTAATGACTGTAGTGATG; settings: 150 mM NaCl, 2 mM MgCl2; 50 mM Tris-HCl pH 7.5
[4] = system: N11 (DNA, aptamer) GAGGCAGCACTTCACACGATCGGACCCAAACTTTACCTTACCCCCATCTGCGTAATGACTGTAGTGATG; settings: 150 mM NaCl, 2 mM MgCl2; 50 mM Tris-HCl pH 7.5
[5] = system: N59 (DNA, aptamer) GAGGCAGCACTTCACACGATCCACCAGGCCAAACACGACCCCAAACACTGCGTAATGACTGTAGTGATG; settings: 150 mM NaCl, 2 mM MgCl2; 50 mM Tris-HCl pH 7.5
[6] = system: N59a (DNA, aptamer) CCACCAGGCCAAACACGACCCCAAACA; settings: 150 mM NaCl, 2 mM MgCl2, 50 mM Tris-HCl pH 7.5

SMILES	KD [1]	KD [2]	KD [3]	KD [4]	KD [5]	KD ([6]; Table S3 prints 64 nM)	KD [6]
C=C1[C@@H](O)[C@@H]2O[C@]3(CC[C@H](/C=C/[C@@H](C)[C@@H]4CC(C)=C[C@@]5(O[C@H](C[C@@](C)(O)C(=O)O)CC[C@H]5O)O4)O3)CC[C@H]2O[C@@H]1[C@@H](O)C[C@H](C)[C@H]1O[C@@]2(CC[C@H]1C)OCCC[C@H]2C	0.729 µM	2.57 µM	1890 µM	0.498 µM	0.17 µM	0.064 µM	
C=C1[C@@H](O)[C@@H]2O[C@]3(CC[C@H](/C=C/[C@@H](C)[C@@H]4CC(C)=C[C@@]5(O[C@H](C[C@@](C)(O)C(=O)O)CC[C@H]5O)O4)O3)CC[C@H]2O[C@@H]1[C@@H](O)C[C@H](C)[C@H]1O[C@@]2(CCCCO2)CC[C@H]1C							30.5 µM
